According to ChEMBL document CHEMBL4483862, “Open-source discovery of chemical leads for next-generation chemoprotective antimalarials” (2018):

Test system: Plasmodium berghei
Test: Luciferase/luciferin-expressing antifolate-resistant parasites were used to infect a culture of HepG2 cells that were pre-incubated with compounds. Infected hepatocytes emit light due to the luciferase reaction. Assay results are presented as the percent inhibition of light emission compared to control. […]
Assay type: functional
Conditions: sporozoite; for IC90: read-out: LUCIFERASE INFECTION ASSAY - IC90
[1] = read-out: LUCIFERASE INFECTION ASSAY - IC50

Structure (SMILES)	IC90	IC50 [1]	also measured
O=C(Nc1cc(C(F)(F)F)cc(C(F)(F)F)c1)c1csc([N+](=O)[O-])c1	7.1 µM	–	IC50 (HEPG2TOX_HILL_SLOPE 11, HEPG2TOX_R_SQUARED 0.957, PBLUC_HILL_SLOPE 1.57, PBLUC_R_SQUARED 0.511, read-out: LUCIFERASE INFECTION ASSAY - IC50): 1.75 µM
CCn1nc(C(=O)NCc2ccc(OC)cc2)c2c1CCN(C(=O)C1Cc3ccccc3O1)C2 (stereo not drawn)	6.24 µM	–	IC50 (HEPG2TOX_HILL_SLOPE 2.42, HEPG2TOX_R_SQUARED 0.906, PBLUC_HILL_SLOPE 2.97, PBLUC_R_SQUARED 0.096, read-out: LUCIFERASE INFECTION ASSAY - IC50): 2.98 µM
CCN1C(=O)N(CCc2ccccc2)C2(CCN(Cc3cccc(OC)c3)CC2)C1=O	> 7.83 µM	–	IC50 (HEPG2TOX_HILL_SLOPE 18.8, HEPG2TOX_R_SQUARED 0.873, read-out: LUCIFERASE INFECTION ASSAY - IC50): > 7.83 µM
Cc1csc(-n2c(C)cc(C(=O)CSc3nc(N)cc(N)n3)c2C)n1	> 10 µM	–	IC50 (FFLUC_HILL_SLOPE 1.79, FFLUC_R_SQUARED 0.665, read-out: LUCIFERASE INFECTION ASSAY - IC50): > 10 µM
CC(C)(C)Nc1ccn2nc(-c3ccco3)cc2n1	> 12.9 µM	–	IC50 (PBLUC_HILL_SLOPE 2.89, PBLUC_R_SQUARED 0.538, read-out: LUCIFERASE INFECTION ASSAY - IC50): 8.49 µM
OCc1ccc(-c2cnc3cnc(-c4cnn(Cc5ccccc5)c4)cn23)cc1	> 8.65 µM	> 8.65 µM	–
COc1ccc(Cn2nc(-c3ccccc3)cc2-c2ccccc2O)cc1	1.33 µM	–	IC50 (HEPG2TOX_HILL_SLOPE 8.58, HEPG2TOX_R_SQUARED 0.567, PBLUC_HILL_SLOPE 13.6, PBLUC_R_SQUARED 0.554, read-out: LUCIFERASE INFECTION ASSAY - IC50): 1.13 µM
CCOC(=O)C1=C(CSc2nc3ccccc3c(=O)n2-c2ccc(OC(F)F)cc2)NC(=O)NC1C (stereo not drawn)	> 10 µM	–	IC50 (HEPG2TOX_HILL_SLOPE 1.17, HEPG2TOX_R_SQUARED 0.429, PBLUC_HILL_SLOPE 8.23, PBLUC_R_SQUARED 0.327, read-out: LUCIFERASE INFECTION ASSAY - IC50): 8.35 µM
Cc1oc(C(C)(C)C)cc1-c1cc(NC(=O)Nc2ccccc2C#N)n(-c2cc(C(F)(F)F)cc(C(F)(F)F)c2)n1	3 µM	–	IC50 (HEPG2TOX_HILL_SLOPE 5.04, HEPG2TOX_R_SQUARED 0.982, PBLUC_HILL_SLOPE 7.22, PBLUC_R_SQUARED 0.381, read-out: LUCIFERASE INFECTION ASSAY - IC50): 2.22 µM
Cc1cc(NCc2cccc(C(F)(F)F)c2)nc(N)n1	> 10 µM	–	IC50 (HEPG2TOX_HILL_SLOPE 5.66, HEPG2TOX_R_SQUARED 0.531, PBLUC_HILL_SLOPE 2.77, PBLUC_R_SQUARED 0.624, read-out: LUCIFERASE INFECTION ASSAY - IC50): 5.15 µM
COc1ccc(-c2csc3ncnc(NCC(=O)NC(C)C)c23)cc1	> 10 µM	–	IC50 (HEPG2TOX_HILL_SLOPE 2.82, HEPG2TOX_R_SQUARED 0.984, PBLUC_HILL_SLOPE 1.1, PBLUC_R_SQUARED 0.732, read-out: LUCIFERASE INFECTION ASSAY - IC50): 2.59 µM
CC(C)N(Cc1nc(=O)c2ccccc2[nH]1)C(=O)COc1ccccc1Cc1ccccc1	> 10 µM	> 10 µM	–
Cn1cc(-c2cn3c(-c4cccc(O)c4)cnc3cn2)cn1	> 11.3 µM	–	IC50 (HEPG2TOX_HILL_SLOPE 8.37, HEPG2TOX_R_SQUARED 0.807, PBLUC_HILL_SLOPE 3.66, PBLUC_R_SQUARED 0.561, read-out: LUCIFERASE INFECTION ASSAY - IC50): 6.93 µM
COCC(C)NC(=O)c1cccnc1-c1nc2ccccc2s1 (stereo not drawn)	> 10.1 µM	> 10.1 µM	–
COC(=O)C1=C2N(C)c3ccccc3N2C(Nc2ccc(C)cc2)=NC1C(F)(F)F.Cc1ccc(C)cc1 (stereo not drawn)	> 10 µM	–	IC50 (FFLUC_HILL_SLOPE 2.2, FFLUC_R_SQUARED 0.697, HEPG2TOX_HILL_SLOPE 5.36, HEPG2TOX_R_SQUARED 0.5, PBLUC_HILL_SLOPE 4.61, PBLUC_R_SQUARED 0.0573, read-out: LUCIFERASE INFECTION ASSAY - IC50): 7.42 µM
O=C(Nc1ccc(F)c(Cl)c1)c1[nH]nc2ccccc12	> 10 µM	–	IC50 (FFLUC_HILL_SLOPE 1.67, FFLUC_R_SQUARED 0.554, PBLUC_HILL_SLOPE 0.29, PBLUC_R_SQUARED 0.519, read-out: LUCIFERASE INFECTION ASSAY - IC50): 0.104 µM
CC(C)(C)c1ccc(C(=O)NCCOc2ccccc2F)cc1	0.642 µM	–	IC50 (FFLUC_HILL_SLOPE 1.22, FFLUC_R_SQUARED 0.498, PBLUC_HILL_SLOPE 0.635, PBLUC_R_SQUARED 0.572, read-out: LUCIFERASE INFECTION ASSAY - IC50): 0.0201 µM

Structure (SMILES)	IC90	IC50 [1]	also measured
CC(C)(C)c1ccc(CSc2nnc(-c3ccco3)n2-c2ccc(OCc3ccccc3)cc2)cc1	> 6.66 µM	–	IC50 (FFLUC_HILL_SLOPE 93.6, FFLUC_R_SQUARED 0.0881, read-out: LUCIFERASE INFECTION ASSAY - IC50): > 6.66 µM
COc1ccc(CCC(=O)NCc2cc(=O)n(C)c(=O)n2C)cc1	> 9.96 µM	> 9.96 µM	–
COc1cc(CNc2nccc3nc(-c4ccccc4Cl)[nH]c23)cc(OC)c1OC	> 10 µM	8.57 µM	–
CC(C)(C)c1ccc(C(=O)Nc2cc(F)ccc2F)s1	0.55 µM	–	IC50 (PBLUC_HILL_SLOPE 0.906, PBLUC_R_SQUARED 0.913, read-out: LUCIFERASE INFECTION ASSAY - IC50): 0.0487 µM
CCOc1cc(CN(C)c2cncc(-n3cccn3)n2)ccc1OC(F)F	> 10 µM	> 10 µM	–
Cc1sc2ncn3nc(-c4ccc(=O)[nH]n4)nc3c2c1C	> 11.1 µM	> 11.1 µM	–
CC(=O)c1cccc(-c2cnc3ccc(-c4cccc(C(F)(F)F)c4)nn23)c1	4.27 µM	–	IC50 (HEPG2TOX_HILL_SLOPE 8.49, HEPG2TOX_R_SQUARED 0.595, PBLUC_HILL_SLOPE 2.29, PBLUC_R_SQUARED 0.849, read-out: LUCIFERASE INFECTION ASSAY - IC50): 1.64 µM
O=C(COC(=O)c1ccc2[nH]c3c(c2c1)CCCC3)c1ccc2c(c1)OCCO2	9.92 µM	–	IC50 (PBLUC_HILL_SLOPE 11.3, PBLUC_R_SQUARED 0.654, read-out: LUCIFERASE INFECTION ASSAY - IC50): 8.17 µM
O=C(c1cccc(-c2cccnc2)c1)c1cnc(Nc2ccccc2)[nH]1	9.25 µM	–	IC50 (HEPG2TOX_HILL_SLOPE 16.4, HEPG2TOX_R_SQUARED 0.215, PBLUC_HILL_SLOPE 5.04, PBLUC_R_SQUARED 0.615, read-out: LUCIFERASE INFECTION ASSAY - IC50): 5.98 µM
CCOC(=O)N1CCN(CC(O)COc2ccc3oc4ccccc4c3c2)CC1 (stereo not drawn)	> 10 µM	> 10 µM	–
O=C(CN1CCN(C(c2ccc(F)cc2)c2ccc(F)cc2)CC1)Nc1nnc(-c2ccccc2)o1	1.43 µM	1.23 µM	–
CCCn1c(NC(=O)C2CCCCN2S(=O)(=O)c2ccccc2)nc2ccccc21 (stereo not drawn)	7.71 µM	–	IC50 (PBLUC_HILL_SLOPE 7.3, PBLUC_R_SQUARED 0.749, read-out: LUCIFERASE INFECTION ASSAY - IC50): 5.71 µM
O=C(Nc1nc2ccccc2s1)N1CC=C(c2c[nH]c3ncccc23)CC1	> 10 µM	–	IC50 (HEPG2TOX_HILL_SLOPE 3.51, HEPG2TOX_R_SQUARED 0.954, PBLUC_HILL_SLOPE 3.11, PBLUC_R_SQUARED 0.433, read-out: LUCIFERASE INFECTION ASSAY - IC50): 6.66 µM
C/C(=N\NC(=O)c1sc2ccccc2c1Cl)c1ccc(C(C)(C)C)cc1	> 10 µM	–	IC50 (PBLUC_HILL_SLOPE 2.25, PBLUC_R_SQUARED 0.703, read-out: LUCIFERASE INFECTION ASSAY - IC50): 4.74 µM
CC(=O)Nc1ccc(-c2cnc3ccc(-c4ccccc4)nn23)cc1	3.8 µM	–	IC50 (HEPG2TOX_HILL_SLOPE 2.97, HEPG2TOX_R_SQUARED 0.938, PBLUC_HILL_SLOPE 2.21, PBLUC_R_SQUARED 0.595, read-out: LUCIFERASE INFECTION ASSAY - IC50): 1.4 µM
CCn1c(SCC(=O)NC(=O)NCc2cccs2)nnc1C1CC1	> 10 µM	> 10 µM	–
O=C(NCc1ccccc1CN1CCOCC1)c1cccc(C(F)(F)F)c1	> 10 µM	> 10 µM	–
